# Read-outs that look alike come from different tables or passages of the source.
# Legend:
# [1] = dog, in vivo
# Method: The dose of administered leuprolide acetate mid the measurement of plasma leuprolide concentration are the same as described for FIG. 1.
# In this and subsequent Examples, bioavailability is calculated and expressed either in terms of Area Under Curve (AUC) or as percent (%) bioavailability. AUC is determined by calculating the area under the curve of plots of time (X-axis) versus plasma concentration (Y-axis) of the administered polypeptide. Typically, AUC is determined over a 6 (0-6) or 8 (0-8) hour period. Percent bioavailability is calculated as the ratio [formula] Increases in AUC and/or bioavailability indicate increased bioavailability of the administered polypeptide.
# In one such composition the pH value was adjusted to a value of about 7.0 with NaOH.
# The liquid compositions were sublingually administered to dogs (0.1 ml/10 kg body wt) and the plasma levels of leuprolide measured over 8 hours.
# [2] = dog, in vivo; remark: listed apart in the source
structure (smiles),measurement,setting,value
"CCNC(=O)[C@@H]1CCCN1C(=O)[C@H](CCCNC(=N)N)NC(=O)[C@H](CC(C)C)NC(=O)[C@@H](CC(C)C)NC(=O)[C@H](Cc1ccc(O)cc1)NC(=O)[C@H](CO)NC(=O)[C@H](Cc1c[nH]c2ccccc12)NC(=O)[C@H](Cc1c[nH]cn1)NC(=O)[C@@H]1CCC(=O)N1 [leuprolide acetate, 5-oxo-L-prolyl-L-histidyl-L-tryptophanyl-L-seryl-L-tyrosyl-D-leueyl-L-leueyl-L-arginyl-L-prolyl-ethylamide]",bioavailability vs benzoic acid concentration (FIG. 3),[1],directly proportional to benzoic acid concentration
same,Percent Bioavailability,[1]; pH 5.6,24.5%
same,Percent Bioavailability,[1]; pH 7,2.7%
same,"bioavailability, AUC 0-8 hours vs peppermint oil concentration (FIG. 4)",[2],increases the bioavailability

# From patent US5487898A, “Compositions and method for the sublingual or buccal administration therapeutic agents” (Abbott Laboratories, priority 1994, dated 1996)
